The numbers were not newly measured in article PMC5175396, “Cytotoxicity of Plumbagin, Rapanone and 12 other naturally occurring Quinones from Kenyan Flora towards human carcinoma cells” (BMC Pharmacology & Toxicology, 2016), which cites them from elsewhere.

The data set relates to PF-382 leukemia T-cells, MiaPaCa-2 pancreatic cells, U87MG glioblastoma-astrocytoma cells, Colo-38 skin melanoma cells, HeLa and Caski cervical carcinoma cells. The arrangement: method as in PMID 21886765. The settings on record: PF-382, MiaPaCa-2, U87MG, Colo-38, HeLa, read-out: IC50 against a panel of cancer cell lines; cited from earlier work.

Take `CC(=O)c1cc2c(o1)C(=O)c1ccccc1C2=O` [2-acetylfuro-1,4-naphthoquinone]: the IC50 (commonly the concentration needed to halve the response being measured) is < 10 µM.
